In patent US8598226B2, “Fused cyclic compounds” (Takeda Pharmaceutical Company Limited, priority 2006, dated 2013):
Counter-ions that a name gives are not always drawn.

What follows are molecules tested against T1, human-derived GPR40 (Homo sapiens, UniProt O14842) (assay: Receptor function modulating action (agonist action) on human-derived GPR40: variation in intracellular calcium concentration in CHO cells (FLIPR or Cell Lux)). Conditions: each compound at 1 μM; relative to activity of 10 μM γ-linolenic acid = 100%; CHO cell line stably expressing human-derived GPR40; FLIPR for Examples 2, 6, 8, 10, 11, 13, Cell Lux for Examples 19-34.
T1 construct: expressed in transfected cells
T1 sequence (O14842 whole entry): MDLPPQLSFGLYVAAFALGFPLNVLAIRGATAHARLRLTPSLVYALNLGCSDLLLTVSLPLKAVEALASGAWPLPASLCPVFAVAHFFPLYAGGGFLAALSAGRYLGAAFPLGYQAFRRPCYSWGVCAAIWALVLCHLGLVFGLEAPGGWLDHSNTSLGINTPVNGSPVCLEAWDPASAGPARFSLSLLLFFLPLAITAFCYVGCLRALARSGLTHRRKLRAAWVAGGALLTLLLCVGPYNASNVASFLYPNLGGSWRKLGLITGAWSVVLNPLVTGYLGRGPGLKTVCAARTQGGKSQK
Type: cell-based
Description: A CHO cell line stably expressing human-derived GPR40 was used for determining the agonist activity. […] One day before the assay, the cells cultured to near confluence were rinsed with PBS (Invitrogen), detached using 0.5 mM EDTA (Wako Pure Chemical Industries, Ltd.) and recovered by centrifugation. The obtained cells were counted and diluted to 3×10^5 cells per 1 mL medium. The cells were dispensed to a 96-well black clear bottom plate (Coster) by 100 μL per well and cultured overnight in a CO2 incubator. To the CHO cells prepared in this manner were added various test compounds, and variation in the intracellular calcium concentration was measured using FLIPR (Molecular Device) or Cell Lux (PerkinElmer). For measurement of variation in the intracellular calcium concentration using FLIPR or Cell Lux, the following pretreatment was performed. […] Then, a fluorescence dye solution was dispensed by 100 μL per well, and the cells were cultured in a CO2 incubator for 1 hr to allow intake of the fluorescence dye. During this time, the test compound was diluted to a given concentration with the assay buffer, and dispensed to a polypropylene 96-well plate (sample plate) by 100 μL. The cell plate and the sample plate were simultaneously set in the FLIPR or Cell Lux. After the foregoing pretreatment, variation in the intracellular calcium concentration after addition of 50 μL of various test compounds was measured using FLIPR or Cell Lux.

Structure (SMILES)	activation at 1 µM [%]	Relative activity value [%]
Cc1cc(OC2CCS(=O)(=O)CC2)cc(C)c1-c1cccc(COc2ccc3c(c2)OC[C@H]3CC(=O)O)c1 [Example 2, [(3S)-6-({4′-[(1,1-dioxidotetrahydro-2H-thiopyran-4-yl)oxy]-2′,6′-dimethylbiphenyl-3-yl}methoxy)-2,3-dihydro-1-benzofuran-3-yl]acetic acid]	107	–
Cc1c(C)c(-c2cccc(COc3ccc4c(c3)OC[C@H]4CC(=O)O)c2)c(C)c(C)c1OCCCS(C)(=O)=O [Example 8, [(3S)-6-({2′,3′,5′,6′-tetrameramethyl-4′-[3-(methylsulfonyl)propoxy]biphenyl-3-yl}methoxy)-2,3-dihydro-1-benzofuran-3-yl]acetic acid]	112	–
Cc1cc(OCCCS(C)(=O)=O)cc(C)c1-c1cccc(COc2ccc3c(c2)OC[C@H]3CC(=O)O)c1 [Example 10, [(3S)-6-({2′,6′-dimethyl-4′-[3-(methylsulfonyl)propoxy]biphenyl-3-yl}methoxy)-2,3-dihydro-1-benzofuran-3-yl]acetic acid]	–	114
Cc1cc(OCCCS(C)(=O)=O)c(F)c(C)c1-c1cccc(COc2ccc3c(c2)OC[C@H]3CC(=O)O)c1 [Example 13, [(3S)-6-({3′-fluoro-2′,6′-dimethyl-4′-[3-(methylsulfonyl)propoxy]biphenyl-3-yl}methoxy)-2,3-dihydro-1-benzofuran-3-yl]acetic acid]	125	–
CCS(=O)(=O)CCOc1cc(C)c(-c2cccc(COc3ccc4c(c3)OC[C@H]4CC(=O)O)c2)c(C)c1 [Example 11, [(3S)-6-({4′-[2-(ethylsulfonyl)ethoxy]-2′,6′-dimethylbiphenyl-3-yl}methoxy)-2,3-dihydro-1-benzofuran-3-yl]acetic acid]	120	–
Cc1cc(OCC2(O)CCS(=O)(=O)CC2)cc(C)c1-c1cccc(COc2ccc3c(c2)OC[C@H]3CC(=O)O)c1 [Example 6, [(3S)-6-({4′-[(4-hydroxy-1,1-dioxidotetrahydro-2H-thiopyran-4-yl)methoxy]-2′,6′-dimethylbiphenyl-3-yl}methoxy)-2,3-dihydro-1-benzofuran-3-yl]acetic acid]	102	–
Cc1cc(OCCCS(C)(=O)=O)cc(CO)c1-c1cccc(COc2ccc3c(c2)OC[C@H]3CC(=O)O)c1 [Example 19, [(3S)-6-({2′-(hydroxymethyl)-6′-methyl-4′-[3-(methylsulfonyl)propoxy]biphenyl-3-yl}methoxy)-2,3-dihydro-1-benzofuran-3-yl]acetic acid]	118	–

The remaining lines, values ahead:

activation at 1 µM [%]	Relative activity value [%]	Structure (SMILES)
104	–	Cc1cc(OCCCS(C)(=O)=O)cc(C)c1-c1cc(COc2ccc3c(c2)OC[C@H]3CC(=O)O)ccc1COc1ccccc1 [Example 32, [(3S)-6-({2′,6′-dimethyl-4′-[3-(methylsulfonyl)propoxy]-6-(phenoxymethyl)biphenyl-3-yl}methoxy)-2,3-dihydro-1-benzofuran-3-yl]acetic acid]
119	–	Cc1cc(OCCCS(C)(=O)=O)cc(C)c1-c1cc(COc2ccc3c(c2)OC[C@H]3CC(=O)O)c(F)cc1OCc1ccccc1 [Example 34, [(3S)-6-({6-(benzyloxy)-4-fluoro-2′,6′-dimethyl-4′-[3-(methylsulfonyl)propoxy]biphenyl-3-yl}methoxy)-2,3-dihydro-1-benzofuran-3-yl]acetic acid]
96	–	Cc1c(Cl)c(OCCCS(C)(=O)=O)c(Cl)c(C)c1-c1cccc(COc2ccc3c(c2)OC[C@H]3CC(=O)O)c1 [Example 24, [(3S)-6-({3′,5′-dichloro-2′,6′-dimethyl-4′-[3-(methylsulfonyl)propoxy]biphenyl-3-yl}methoxy)-2,3-dihydro-1-benzofuran-3-yl]acetic acid]
108	–	Cc1cc(OCCCS(C)(=O)=O)cc(C)c1-c1cc(COc2ccc3c(c2)OC[C@H]3CC(=O)O)ccc1Oc1ccccc1 [Example 30, [(3S)-6-({2′,6′-dimethyl-4′-[3-(methylsulfonyl)propoxy]-6-phenoxybiphenyl-3-yl}methoxy)-2,3-dihydro-1-benzofuran-3-yl]acetic acid 0.5 calcium salt]
121	–	Cc1cc(OCCCS(C)(=O)=O)c(Cl)c(C)c1-c1cccc(COc2ccc3c(c2)OC[C@H]3CC(=O)O)c1 [Example 22, [(3S)-6-({3′-chloro-2′,6′-dimethyl-4′-[3-(methylsulfonyl)propoxy]biphenyl-3-yl}methoxy)-2,3-dihydro-1-benzofuran-3-yl]acetic acid]
101	–	CCc1cc(OCCCS(C)(=O)=O)cc(CC)c1-c1cccc(COc2ccc3c(c2)OC[C@H]3CC(=O)O)c1 [Example 26, [(3S)-6-({2′,6′-diethyl-4′-[3-(methylsulfonyl)propoxy]biphenyl-3-yl}methoxy)-2,3-dihydro-1-benzofuran-3-yl]acetic acid]
92	–	CCc1c(Cl)c(OCCCS(C)(=O)=O)c(Cl)c(CC)c1-c1cccc(COc2ccc3c(c2)OC[C@H]3CC(=O)O)c1 [Example 28, [(3S)-6-({3′,5′-dichloro-2′,6′-diethyl-4′-[3-(methylsulfonyl)propoxy]biphenyl-3-yl}methoxy)-2,3-dihydro-1-benzofuran-3-yl]acetic acid]

Same assay, conditions: each compound at 1 μM; relative to activity of 10 μM γ-linolenic acid = 100%; CHO cell line stably expressing human-derived GPR40; FLIPR for Examples 2, 6, 8, 10, 11, 13, Cell Lux for Examples 19-34; hydrate

Relative activity value [%]	Structure (SMILES)
118	Cc1cc(OCCCS(C)(=O)=O)cc(C)c1-c1cccc(COc2ccc3c(c2)OC[C@H]3CC(=O)O)c1 [Example 20, [(3S)-6-({2′,6′-dimethyl-4′-[3-(methylsulfonyl)propoxy]biphenyl-3-yl}methoxy)-2,3-dihydro-1-benzofuran-3-yl]acetic acid 0.5 hydrate]

Same assay, conditions: reference agonist at 10 μM, its activity set as 100%; CHO cell line stably expressing human-derived GPR40

Relative activity value [%]	Structure (SMILES)
100	CCCCC/C=C\C/C=C\C/C=C\CCCCC(=O)O [γ-linoleic acid, γ-linolenic acid, reference compound]
